Data: patent US7279465B2, “Use of amphiphilic nucleoside phosphonoformic acid derivatives for the treatment of viral infectious diseases” (Eberhard-Karls-Universitaet, priority 2002, dated 2007)
Values joined by “and” are separate entries in the source; they are usually repeats but may differ in a detail not shown here. Equal entries are not always repeated. Where two headings read alike, the source gives them in different places.

Assays:
[1] = test system: multiresistant HCMV strain (GCV/PFA/CDV-resistant); experiment: Modified cell-adapted plaque reduction assay (HFF cocultures), multiresistant HCMV strain; type: cell-based, human cytomegalovirus (HCMV); settings: for average plaque numbers: 1500 HCMV-infected HFF cells/microculture, multiresistant strain
Excerpt: (§1) Cocultures of infected and uninfected human foreskin fibroblasts (HFFs) were used for this purpose.
(§2) The implementation of the assay was described for the first time in Prix, et al., “A simplified assay for screening of drug resistance of cell-associated cytomegalovirus strains,” Journal of Clinical Virology (1998) 11:29-37, and Prix, et al., “Comprehensive restriction analysis of the UL97 region allows early detection of ganciclovir-resistant human cytomegalovirus in an immunocompromised child,” Journal of Infectious Diseases (1999) 180:491-495, and is briefly described below.
(§3) HCMV primary isolates on HFF cells in tube culture were passaged on subconfluent monolayers of HFF grown in small cell culture flasks (25 cm^2), and cultured. When an approx. 20-40% cytopathic effect (CPE) had been reached, the cells were washed with phosphate-buffered saline (PBS) and the monolayer was removed by trypsinization. After the trypsin had been inactivated, the pellet was taken up in Eagle's minimal essential medium (MEM)-10% FCS (foetal calf serum) and subjected to mild filtration for the purpose of separating off cell aggregates.
(§4) In parallel, uninfected HFF cells were cultured on 175 cm^2 dishes, washed, trypsinized and, after further purification steps, taken up in MEM-10% FCS.
[…] In each case 100 μl of each of these dilution steps were pipetted in triplicate into a 96-well microtitre plate. In order to ensure that the cells adhered to the microtitre plate bottom, the cocultures were incubated for at least 4 h before the medium was carefully removed. […]
The primary antibody (anti-IE1-pp72, E13 clone, Paesel & Lorei, Germany), which is directed against the HCMV immediate early antigen (UL123) of HCMV, was then added. […] After the peroxidase/H2O2 substrate had been added, the HCMV immediate early antigen was detected, under a microscope, in the nuclei of the infected fibroblasts as a result of the in situ brown staining. […]

[2] = test system: human prepuce fibroblasts; experiment: Cytotoxic effect in vitro towards fibroblasts; type: cell-based
Protocol: Since N3 was determined to have a cytotoxic effect in vitro towards human prepuce fibroblasts only at concentrations of >125 μM, adequate therapeutic breadth for in vivo use consequently also exists.

[3] = test system: GCV-resistant/PFA-sensitive HCMV strain; experiment: microbe, parasite or virus in culture; type: cell-based, human cytomegalovirus (HCMV); settings: for average plaque numbers/microculture: GCV-resistant, PFA/CDV-sensitive strain
Excerpt: as §1, §2, §3, §4
In order to prepare cocultures, the infected cells were mixed with the uninfected cells in the following manner: 2.5×10^4 uninfected cells/100 μl were mixed, in two different ratios, with 500 and 1000 infected cells/100 μl. In each case 100 μl of each of these dilution steps were pipetted in triplicate into a 96-well microtitre plate. In order to ensure that the cells adhered to the microtitre plate bottom, the cocultures were incubated for at least 4 h before the medium was carefully removed.
The cultures were then incubated for 4 days so as to enable the viruses from the infected single cells to spread in the form of plaque formation by infecting the neighbouring cells.
Following the 4-day incubation, the medium was carefully poured off and the microcultures were permeabilized, and fixed, with 200 μl of ice-cold (−20° C.) methanol. After 20 min, the methanol was removed and the cells were washed twice with PBS.
The primary antibody (anti-IE1-pp72, E13 clone, Paesel & Lorei, Germany), which is directed against the HCMV immediate early antigen (UL123) of HCMV, was then added. […] After the peroxidase/H2O2 substrate had been added, the HCMV immediate early antigen was detected, under a microscope, in the nuclei of the infected fibroblasts as a result of the in situ brown staining.
6.25 μM of the structurally identical, ethyl-esterified compound N4 were also included.
In this experiment, 500 HCMV-infected HFF cells/microculture were used.
For correctly evaluating the plates, the norm was applied that a plaque had to consist of a group of cells containing at least 10 individual cells in order to be included in the count.

HCMV = experiment: Preliminary screening of antiviral effect in vitro; type: cell-based, human cytomegalovirus (HCMV); settings: compared with unesterified compound

“3′-azido-2′,3′-dideoxythymidylyl-(5′→2)-1-O-octadecyl-rac-glycerol-3-(hydroxycarbonyl)-phosphonate [N3]” was tested, and the average plaque numbers ([1]; N3 (6.25 μM recorded)) was 2.3, the “concentration with cytotoxic effect in vitro” value [2] was over 125 µM and the average plaque numbers/microculture ([3]; 6.25 μM N3, 500 HCMV-infected HFF cells/microculture) was 5.7 and 7.5. The “ID50 lower than that for GCV (fold)” value ([3]; GCV-resistant strain, 1000 infected cells/microculture) was “approx. 11 ×” and the “antiviral activity higher than that of PFA (fold)” value ([3]; GCV-resistant/PFA-sensitive strain, 1000 infected HFF cells/microculture) was “approx. 40 ×”.

In the case of `Nc1nc2c(ncn2COC(CO)CO)c(=O)[nH]1` [GCV, 9-[1,3-dihydroxy-2-propoxymethyl]guanine, reference compound], the average plaque numbers/microculture ([3]; 5 μM GCV, 500 HCMV-infected HFF cells/microculture) is reported as 19.5 and the IC50 ([3]; Human betaherpesvirus 5, Table 1, GCVres/PFAsens/CDVsens strain, Niz = 1000 infected cells/microculture, read-out: ID50 (95% CI)) is reported as 14.3 µM.

`O=C(O)P(=O)(O)O.[Na]` [PFA, sodium-phosphonoformic acid, reference compound] showed an average plaque numbers ([1]; PFA (300 μM recorded)) of 20.5, a number of plaques ([3]; 300 μM PFA, 500 HCMV-infected HFF cells/microculture, negative control 37.9) of 5 and an IC50 ([3]; Human betaherpesvirus 5, read-out: ID50 (95% CI)) of 64.8 µM.

“ethyl 3′-azido-2′,3′-dideoxythymidylyl-(5′→2)-1-O-octadecyl-rac-glycerol-3-(hydroxycarbonyl)-phosphonate [N4]” was tested, and the “antiviral activity against multiresistant strains” value ([1]; multiresistant strains) was “did not exhibit any antiviral activity” and the “antiviral effect in vitro” value (HCMV) was “markedly reduced antiviral effect”.
